Here are results for 67 molecules from PubChem BioAssay AID463203 (Broad Institute, 2010).

Activity calls are given as the source filed them.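 Rule for the calls: active = more than half of replicate measurements showing over 20% loss of kinase signal relative to plate controls; inconclusive = some but at most half of replicates over 20% loss; inactive = no replicate over 20% signal loss.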 Some results are limits rather than exact numbers.

The assay deals with Glycogen synthase kinase-3 alpha (Homo sapiens) (UniProt P49840). Briefly: concentration-response blocking of human GSK3A – biochemical, luminescence, cell-free homogeneous, retest, dose response (AID 463203). The conditions noted are these: GSK-3 alpha enzyme, ADP-Glo luminescence, 60 min. For orientation: ADP-Glo first removes unused ATP, then detects ADP through luciferase.
Sequence of Glycogen synthase kinase-3 alpha (Homo sapiens) (P49840 whole entry, looked up): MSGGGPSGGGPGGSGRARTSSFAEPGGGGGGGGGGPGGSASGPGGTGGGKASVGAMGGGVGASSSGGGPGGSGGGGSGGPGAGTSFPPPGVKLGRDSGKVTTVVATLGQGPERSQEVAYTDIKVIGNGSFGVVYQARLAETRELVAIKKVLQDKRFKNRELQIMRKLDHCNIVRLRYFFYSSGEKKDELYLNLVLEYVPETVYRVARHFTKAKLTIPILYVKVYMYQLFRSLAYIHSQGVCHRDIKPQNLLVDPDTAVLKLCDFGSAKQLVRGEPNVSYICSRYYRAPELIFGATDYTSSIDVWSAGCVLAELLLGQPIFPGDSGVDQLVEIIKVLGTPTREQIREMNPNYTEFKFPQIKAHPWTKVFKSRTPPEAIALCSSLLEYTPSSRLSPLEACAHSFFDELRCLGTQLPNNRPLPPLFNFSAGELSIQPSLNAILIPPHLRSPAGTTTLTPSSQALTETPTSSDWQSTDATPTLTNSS
For the molecule `O=C(CSCc1ccccn1)Nc1ccccc1`, the AC50 was > 30 µM (inactive).

Take `CCN(C(=O)CN1CCCC(C)C1)c1c(N)n(Cc2ccccc2)c(=O)[nH]c1=O` (configuration not stated): the AC50 was > 30 µM (inactive).

Consider `CS(=O)(=O)N1CCN(c2ccc(NC(=O)c3ccc(Br)o3)cc2)CC1`, for which the AC50 was > 30 µM (inactive).

As for `Clc1ccc(-c2nc3ncccn3c2Nc2ccc3c(c2)OCO3)cc1`, the AC50 is > 30 µM (inactive).

On to `CC1CN(c2nc(N(C)c3ccccc3)nc(N)c2[N+](=O)[O-])CC(C)O1` (configuration not stated), for which the AC50 was > 30 µM (inactive).

As for `COc1cccc(CC(=S)N2CCOCC2)c1`, the AC50 was > 30 µM (inactive).

`COc1ccc(NC(=O)c2ccc(NCC3CCCO3)c([N+](=O)[O-])c2)cc1` (configuration not stated): the AC50 is > 30 µM (inactive).

For `CCOc1cccc(-c2c(C(=O)N/N=C/c3ccncc3)nnn2-c2nonc2N)c1`, the AC50 was 2.13 µM.

Take `COc1cc(C(=O)NNC(=O)C2CSC3(C)CCC(=O)N23)cc(OC)c1OC` (configuration not stated): the AC50 is > 30 µM (inactive).

Consider `COCCCNc1ncnc2nc[nH]c12`, for which the AC50 is > 30 µM (inactive).

For the molecule `N#CCC(=O)Nc1sc2c(c1C(N)=O)CCCC2`, the half-maximal activity concentration (AC50) is 20.2 µM.

On to `CC(C)NC(=O)c1sc2nc3c(c(-c4cccs4)c2c1N)CN(C)CC3`, for which the AC50 was > 30 µM (inactive).

Regarding `O=C(CSc1nnc(SCc2ccc(Cl)cc2)s1)N/N=C/c1ccccc1C(=O)O`, the AC50 is > 30 µM (inactive).

As to `N#CCCn1cc(C(=O)N2CCCCC2)c(-c2cccc([N+](=O)[O-])c2)n1`, the AC50 was > 30 µM (inactive).

As to `O=C(NCc1ccccc1)c1ccc2c(=O)[nH]c3c(C(=O)NCC4CCCO4)sc(=S)n3c2c1` (configuration not stated), the half-maximal activity concentration (AC50) is 14 µM.

As to `CCOC(=O)CC(C#N)c1c[nH]c2ccccc12` (configuration not stated), the AC50 was > 30 µM (inactive).

Turning to `CNC(=O)c1ccsc1NC(=O)C1CCCN1S(=O)(=O)c1cccs1` (configuration not stated), the half-maximal activity concentration (AC50) was 17.2 µM.

As to `COc1ccc(S(=O)(=O)Nc2c(C(=O)O)[nH]c3ccc(OC)cc23)cc1`, the half-maximal activity concentration (AC50) is 30.7 µM.

For the molecule `O=C(c1ccco1)c1cn(CC(=O)N2CCCCC2)c2ccccc12`, the AC50 is > 30 µM (inactive).

As for `CC1(C)Cc2c(sc3c2C2=NCCN2C=N3)CO1`, the AC50 was > 30 µM (inactive).

Turning to `O=C(CCSc1nc(-c2ccco2)cc(C(F)(F)F)n1)NCc1cccs1`, the AC50 is > 30 µM (inactive).

Consider `O=C(CCSc1nc(-c2ccc3c(c2)OCO3)cc(C(F)(F)F)n1)NCc1ccco1`, for which the AC50 is > 30 µM (inactive).

For `O=C(CN(Cc1ccc(F)cc1)C(=O)CCC(=O)Nc1nccs1)NCc1ccc(F)cc1`, the AC50 is 9.59 µM.

With `Cc1nnc(SCC(=O)Nc2ccc(Br)cn2)[nH]c1=O`, the half-maximal activity concentration (AC50) is 13.7 µM.

As for `CC(C)NC(=O)NC(=O)CSc1nncn1C`, the AC50 was > 30 µM (inactive).

Regarding `CCCOc1cccc(-c2nnc(N)s2)c1`, the AC50 was > 30 µM (inactive).

As to `COCCNC(=O)Cn1cnc([N+](=O)[O-])n1`, the AC50 is > 30 µM (inactive).

For `Nc1nc(Nc2ccc(Cl)cc2)n[nH]1`, the AC50 was > 30 µM (inactive).

Regarding `COc1cccc(-c2[nH]nc3c2C(c2ccc(C)o2)C(C#N)=C(N)O3)c1` (configuration not stated), the AC50 is > 30 µM (inactive).

As to `COc1ccc(-c2cnc(N)nc2-c2ccc(OC)cc2O)cc1`, the AC50 is 9.75 µM.

Regarding `COc1ccc(-c2cc(C(=O)N3CCN(c4ccccc4OC)CC3)no2)cc1OC`, the AC50 was > 30 µM (inactive).

For `O=C(CN1CCCCCC1)Nc1ccccc1Oc1ccccc1`, the AC50 was > 30 µM (inactive).

With `COc1ccc(NC(=O)c2nnn(Cc3ccc(SC)cc3)c2N)c(OC)c1`, the AC50 was > 30 µM (inactive).

Turning to `COc1ccc(Cl)cc1Nc1nc(N)c2ccccc2n1`, the AC50 was > 30 µM (inactive).

For `CCCCOC(=O)CNc1n[nH]c(=S)[nH]c1=O`, the AC50 is > 30 µM (inactive).

In the case of `CCn1c(=O)[nH]c(=O)c2c(N)c(C(=O)c3ccccc3OC)sc21`, the AC50 was 16.8 µM.

For `O=C(COC(=O)c1cc(S(=O)(=O)N2CCOCC2)ccc1F)Nc1ccc(Cl)cn1`, the concentration at half-maximal activity (AC50) is 2.72 µM.

With `COC(=O)C1(C#N)C(c2ccccc2)C1(C(=O)OC)C(=O)OC` (configuration not stated), the AC50 is > 30 µM (inactive).

With `COc1ccc([N+](=O)[O-])cc1NC(=O)CCN1CCN(C)CC1`, the AC50 is > 30 µM (inactive).

For `O=c1cc(-c2ccccc2)[nH]n1-c1ccc([N+](=O)[O-])cc1`, the AC50 is > 30 µM (inactive).

Turning to `COc1ccc(-c2ncncc2-c2ccccc2)c(O)c1`, the AC50 was 13.2 µM.

Turning to `COc1ccc(C2=Nn3c(nnc3-c3ccncc3)SC2)cc1`, the AC50 is 5.49 µM.

For the molecule `CCOC(=O)CSc1ncnc2c(C(=O)OCC)c3n(c12)CCC3`, the AC50 is > 30 µM (inactive).

Regarding `COc1ccc(Cl)cc1C(=O)Nc1ccc(NC(=O)c2ccco2)cc1`, the AC50 was > 30 µM (inactive).

As to `O=C1CCCN1CCCNc1ncccc1[N+](=O)[O-]`, the AC50 is > 30 µM (inactive).

`Cc1ccc2c(c1)COc1c3ccc(C(=O)N4CCOCC4)cc3nn1-2`: the AC50 was > 30 µM (inactive).

For the molecule `O=C1N/C(=N\S(=O)(=O)Cc2ccccc2)S/C1=C/c1cccc([N+](=O)[O-])c1`, the AC50 is > 30 µM (inactive).

Regarding `Nc1nc(-c2ccccc2)nc(-c2ccccc2O)n1`, the AC50 is 21.4 µM.

With `CCN(CC)C(=O)c1ccc(NC(=O)Nc2ccccc2F)cc1`, the AC50 is 26.5 µM.

Regarding `Cc1cc(=O)[nH]c2c(C)cc(S(=O)(=O)Nc3ccc(O)cc3)cc12`, the AC50 was > 30 µM (inactive).

Consider `Cc1nn(C)c(C)c1CN(C)S(=O)(=O)c1ccc(F)cc1`, for which the AC50 is > 30 µM (inactive).

For `CC1(C)CC(=O)C(CS(=O)(=O)c2ccccc2)=C(O)C1`, the AC50 was > 30 µM (inactive).

For `N#Cc1c(-c2ccc(F)cc2)c2c([nH]c1=O)-c1ccccc1OC2`, the AC50 was > 30 µM (inactive).

Turning to `C/C(=N\NC(=O)c1nnn(-c2nonc2N)c1-c1cccs1)c1cccnc1`, the AC50 was 1.33 µM.

Regarding `Cc1[nH]c2ccccc2c1N=Nc1cccc(C(=O)O)c1`, the AC50 was > 30 µM (inactive).

Take `COc1cccc(NC(=O)c2cnc[nH]2)c1`: the AC50 was > 30 µM (inactive).

With `CN(Cc1ccccc1)c1ncnc(N)c1[N+](=O)[O-]`, the AC50 is 18.8 µM.

On to `Cc1nc(SCC(=O)NCC2CCCO2)c2c3c(sc2n1)CCC3` (configuration not stated), for which the AC50 is > 30 µM (inactive).

`COc1c2ccccc2nc2ccccc12`: the AC50 was > 30 µM (inactive).

On to `Cc1onc(-c2ccccc2)c1C(=O)NCCN1CCOCC1`, for which the AC50 was > 30 µM (inactive).

Take `COCCNc1cc(N)c([N+](=O)[O-])cc1[N+](=O)[O-]`: the AC50 was > 30 µM (inactive).

With `Cn1c2ccc(Cl)cc2c2nc3ccccc3nc21`, the AC50 was > 30 µM (inactive).

On to `Cc1ccc2nc(Cl)c(/C=N/Nc3ccc(C(=O)O)cc3)cc2c1`, for which the AC50 was > 30 µM (inactive).

In the case of `COC(=O)[C@@H]1[C@H](CCc2ccccc2)NC(=O)N(Cc2ccccc2)[C@@H]1C`, the AC50 was > 30 µM (inactive).

For the molecule `Cc1c(O)ccc2c3c(c(=O)oc12)CCCC3`, the AC50 is 6.63 µM.

`O=C1NC(=Nc2ccccc2Cl)S/C1=C\c1cc([N+](=O)[O-])ccc1O`: the AC50 was 3.23 µM.

With `O=c1c(O)c(-c2cc(O)c(O)c(O)c2)oc2cc(O)cc(O)c12`, the AC50 is 4.13 µM.

Broadly, the AC50 is the concentration at which the activity in the assay is half-maximal.
